Data set [1] can be described thus: Solubility in n-hexane (stir 1 hour, centrifuge, weigh dried residue of supernatant). It is filed as physicochemical. The note with it: for solubility in n-hexane: room temperature (25° C.), stirred 1 hour. As to the method:
The solubility in n-hexane at 25° C. is determined as follows. In some detail, a predetermined amount of n-hexane is added to a fullerene derivative. The mixture is then stirred at 25° C. for 1 hour. The resulting slurry is then subjected to centrifugal separation. The solution is then decanted. The solvent is then distilled off the resulting supernatant liquid. The resulting precipitate is dried in vacuo, and then measured for weight. Thus, the solubility in n-hexane at 25° C. is calculated.
To 100 mg of C60[CH2Si(CH3)3]5H was added 0.5 ml of n-hexane. The mixture was then stirred at 25° C. for 1 hour. The slurry was purified, and then subjected to centrifugal separation by a centrifugal separator. The resulting supernatant liquid was withdrawn. The solvent was then distilled off. The residue was then dried in vacuo. The weight of the residue was then measured. The result was 32.5 mg.

A short description of data set [2]: Stability of the solid at room temperature in the air. The format is physicochemical. Conditions: solid (brown powder).

As for (C6H5)5C60H, in data set [1], the solubility in n-hexane entry was “less than 0.001 mg/ml”.
(CH3)5C60H: the solubility in n-hexane result in data set [1] is recorded as “less than 0.001 mg/ml”.
Regarding C60[CH2Si(CH3)3]2, the “solubility in n-hexane measured at 50° C.” value in data set [1] (50° C., otherwise same conditions as in Example 1) was “about 0.2 mg/ml”. The solubility in n-hexane result in data set [1] is “about 0.05 mg/ml”.
C60[CH2Si(CH3)3]5H showed a solubility in n-hexane in data set [1] of 65 mg/mL. The stability when solid entry in data set [2] was “stable at room temperature in the air”.
In data set [1], C60{CH2Si(CH3)3}3H gave a solubility in n-hexane of 11 mg/mL. Further, the stability when solid entry in data set [2] was “stable at room temperature in the air”.
On to “Rh[C60{CH2Si(CH3)3}3](1,5-cyclooctadiene)”, for which, in data set [1], the solubility in n-hexane amounted to 5.0 mg/mL.

Values taken from patent US7202374B2, “Fullerene derivatives and their metal complexes” (Mitsubishi Chemical Corporation, priority 2002, dated 2007).
